The test relates to RA patients. Kind of test: LDL determination, Study 4 (RA patients, 4 weeks, add-on to MTX). Particulars: for [LDL] levels: Study 4. The format is in vivo, human. From the text: Randomized, double-blind, placebo-controlled, multicenter, phase II study of Compound 1 (dosed as a [Compound 1:HCl:3H2O]) to compare four dose regimens versus placebo, in combination with methotrexate, administered for 4 weeks in the treatment of subjects with active rheumatoid arthritis who have an inadequate response to methotrexate alone.
Randomized double-blind, placebo-controlled add on study in subjects with active RA who have an inadequate response to MTX monotherapy, in combination with methotrexate, administered for 4 weeks in the treatment of subjects with active rheumatoid arthritis who have an inadequate response to methotrexate alone.
90 subjects randomized to one of 4 dose regimens of Compound 1 (dosed as a [Compound 1:HCl:3H2O]) or placebo, on top of their stable dose of MTX. Thus, each of the 4 different doses of Compound 1 (dosed as a [Compound 1:HCl:3H2O]) and placebo groups has 18 subjects.
Compound 1 (dosed as a [Compound 1:HCl:3H2O]) capsules administered orally in 30 mg, 75 mg, 150 mg, or 300 mg doses per day for 4 weeks.
The determination of [LDL]-cholesterol is made using an automated method taking advantage of the selective micellary solubilization of [LDL]-cholesterol by a nonionic detergent and the interaction of a sugar compound and lipoproteins (VLDL and chylomicrons).
When a detergent is included in the enzymatic method for cholesterol determination (cholesterol esterase, cholesterol oxidase coupling reaction), the relative reactivities of cholesterol in the lipoprotein fractions increase in this order: [HDL]<chylomicrons <VLDL <[LDL]. In the presence of Mg^2+, a sugar compound markedly reduces the enzymatic reaction of the cholesterol measurement in VLDL and chylomicrons. The combination of a sugar compound with detergent enables the selective determination of [LDL]-cholesterol in serum. (Friedewald et al., 1972; Rifai et al., 1992)
Homogeneous enzymatic colorimetric assay.
In the presence of peroxidase, the hydrogen peroxide generated reacts with 4-aminoantipyrine and Sodium N-(2-hydroxy-3-sulfopropyl)-3,5-dimethoxyaniline (HSDA) to form a purple-blue dye.
The color intensity of this dye is directly proportional to the cholesterol concentration and is measured photometrically.
Human serum and plasma samples [LDL] determination was done on a Roche/Hitachi Cobas c 701/702 system which automatically calculate the analyte concentration of each sample. Samples containing precipitates are centrifuged before performing the assay.

On to `O=C(Nc1nc2cccc(-c3ccc(CN4CCS(=O)(=O)CC4)cc3)n2n1)C1CC1` [Compound 1, cyclopropanecarboxylic acid {5-[4-(1,1-dioxo-thiomorpholin-4-ylmethyl)-phenyl]-[1,2,4]triazolo[1,5-a]pyridin-2yl}-amide], for which the “[LDL] % Mean % variation vs baseline after 4 weeks” value (shortened to “[LDL] % Mean % variation”) (30 mg qd) stood at 7%, the “[LDL] % Mean % variation” value (75 mg qd) amounted to 7%, the “[LDL] % Mean % variation” value (150 mg qd) is recorded as 1% and the “[LDL] % Mean % variation” value (300 mg qd) is given as 13%. Moreover, the “[LDL] levels” value is on record as 3.34 mmol/L (30 mg q.d., baseline); 3.40 mmol/L (30 mg q.d., week 1); 3.35 mmol/L (30 mg q.d., week 2); 3.41 mmol/L (30 mg q.d., week 3); 3.60 mmol/L (30 mg q.d., week 4); 3.22 mmol/L (75 mg q.d., baseline). Further, the “[LDL] levels” value (75 mg q.d., week 1) is 3.25 mmol/L; the “[LDL] levels” value (75 mg q.d., week 2) was determined as 3.17 mmol/L; the “[LDL] levels” value (75 mg q.d., week 3) is listed as 3.14 mmol/L; the “[LDL] levels” value (75 mg q.d., week 4) is 3.36 mmol/L; the “[LDL] levels” value (150 mg q.d., baseline) is given as 3.01 mmol/L; the “[LDL] levels” value (150 mg q.d., week 1) was 3.18 mmol/L. The “[LDL] levels” value (150 mg q.d., week 2) turned out to be 2.95 mmol/L; the “[LDL] levels” value (150 mg q.d., week 3) was 2.96 mmol/L; the “[LDL] levels” value (150 mg q.d., week 4) amounted to 3.06 mmol/L; the “[LDL] levels” value (300 mg q.d., baseline) came to 2.82 mmol/L; the “[LDL] levels” value (300 mg q.d., week 1) is recorded as 3.19 mmol/L; the “[LDL] levels” value (300 mg q.d., week 2) came to 3.11 mmol/L. For the same compound, the “[LDL] levels” value is, setting by setting: (300 mg q.d., week 3) 3.18 mmol/L; (300 mg q.d., week 4) 3.18 mmol/L.

For the origin of these results see patent publication US10376520B2, “Methods for the treatment of cardiovascular disorders” (Galapagos NV, priority 2015, dated 2019).
